Consider 9 compounds from paper PMC9921777, “Coumarin-Based Sulfonamide Derivatives as Potential DPP-IV Inhibitors: Pre-ADME Analysis, Toxicity Profile, Computational Analysis, and In Vitro Enzyme Assay” (Molecules, 2023).

Test [1] concerns the target DPP-IV enzyme (Homo sapiens, UniProt P27487). The experiment in a line: In vitro DPP-IV enzyme inhibition assay (Cayman Chemical kit, item 700210). To be noted: for inhibition at 250 µM: read-out: % Inhibition (at Conc.).
For test [2], the system named is DPP-IV. Particulars: DPP-IV enzyme assay of coumarin; cited from earlier work.

DPP-IV enzyme, sequence (P27487 whole entry): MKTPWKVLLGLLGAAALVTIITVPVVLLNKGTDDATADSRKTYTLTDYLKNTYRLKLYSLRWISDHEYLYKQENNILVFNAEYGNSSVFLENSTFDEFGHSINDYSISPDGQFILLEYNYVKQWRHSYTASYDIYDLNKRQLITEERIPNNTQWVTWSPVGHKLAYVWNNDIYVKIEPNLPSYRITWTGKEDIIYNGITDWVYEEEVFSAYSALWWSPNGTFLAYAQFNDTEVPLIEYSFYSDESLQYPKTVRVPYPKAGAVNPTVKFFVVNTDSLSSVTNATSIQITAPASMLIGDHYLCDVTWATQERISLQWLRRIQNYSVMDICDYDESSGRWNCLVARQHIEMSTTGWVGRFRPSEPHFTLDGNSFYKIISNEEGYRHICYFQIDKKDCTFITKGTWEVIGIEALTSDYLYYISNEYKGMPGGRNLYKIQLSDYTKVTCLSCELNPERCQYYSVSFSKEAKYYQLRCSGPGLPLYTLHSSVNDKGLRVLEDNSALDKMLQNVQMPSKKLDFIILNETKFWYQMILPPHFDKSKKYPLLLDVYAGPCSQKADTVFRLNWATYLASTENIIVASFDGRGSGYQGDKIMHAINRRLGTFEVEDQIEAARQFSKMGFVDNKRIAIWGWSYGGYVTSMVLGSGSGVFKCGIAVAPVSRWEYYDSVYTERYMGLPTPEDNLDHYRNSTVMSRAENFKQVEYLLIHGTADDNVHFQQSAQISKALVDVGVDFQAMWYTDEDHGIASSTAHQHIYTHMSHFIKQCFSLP

By IC50 is commonly meant the concentration at which inhibition is half-maximal. A word on the inhibition: it is the change of the read-out against control, counted positive when it falls. Take `O=c1oc2ccc(S(=O)(=O)Nc3ccncc3)cc2cc1Cl` [6d, 3-Chloro-2-oxo-N-(pyridin-4-yl)-2H-chromene-6-sulfonamide]: in test [1], half-maximal inhibition (IC50) was put at 15.2 ± 1.02 µM and the inhibition at 250 µM was 92.4 ± 1.11%. For the compound `O=c1oc2ccc(S(=O)(=O)Nc3ccccc3)cc2cc1Cl` [6a, 3-Chloro-2-oxo-2H-1-benzopyran-6-(N-phenyl)sulfonamide], in test [1], the IC50 turned out to be 14.5 ± 1.2 µM and the inhibition at 250 µM stood at 93.5 ± 2.02%.

Turning to `Cc1ccc(NS(=O)(=O)c2ccc3oc(=O)c(Cl)cc3c2)cc1` [6r, 3-Chloro-2-oxo-N-(p-tolyl)-2H-chromene-6-sulfonamide], in test [1], half-maximal inhibition (IC50) required 12.92 ± 0.11 µM and the inhibition at 250 µM was 95.4 ± 1.1%. `Cc1ccccc1NS(=O)(=O)c1ccc2oc(=O)c(Cl)cc2c1` [6s, 3-Chloro-2-oxo-N-(o-tolyl)-2H-chromene-6-sulfonamide]: in test [1], the IC50 was determined as 18.29 ± 0.1 µM and the inhibition at 250 µM turned out to be 89.3 ± 0.9%. Take `O=c1oc2ccc(S(=O)(=O)NCc3ccccc3)cc2cc1Cl` [6t, N-benzyl-3-chloro-2-oxo-2H-chromene-6-sulfonamide]: in test [1], the IC50 was determined as 17.73 ± 0.02 µM and the inhibition at 250 µM is 88.3 ± 2.06%. For `O=c1ccc2ccccc2o1` [coumarin], the IC50 in test [2] was 54.8 µM. For the compound `O=c1oc2ccc(S(=O)(=O)Nc3cccnc3)cc2cc1Cl` [6c, 3-Chloro-2-oxo-N-(pyridin-3-yl)-2H-chromene-6-sulfonamide], in test [1], half-maximal inhibition (IC50) was put at 16.3 ± 2.04 µM and the inhibition at 250 µM stood at 90.3 ± 2.04%. For `O=c1oc2ccc(S(=O)(=O)Nc3ccccn3)cc2cc1Cl` [6b, 3-Chloro-2-oxo-N-(pyridin-2-yl)-2H-chromene-6-sulfonamide], in that order: 15.7 ± 0.98 µM and 91.15 ± 0.9%. With `O=c1oc2ccc(S(=O)(=O)Nc3nc4ccccc4[nH]3)cc2cc1Cl` [6i, 3-Chloro-2-oxo-2H-1-benzopyran-6-(N-benzimidazole)sulfonamide], in test [1], the concentration for half-maximal inhibition (IC50) turned out to be 11 ± 1 µM and the inhibition at 250 µM was 95.8 ± 1.08%.
